# Measured values from patent US20090047246A1, “NOVEL INHIBITORS OF HEPATITIS C VIRUS REPLICATION” (InterMune, Inc., priority 2007, published 2009).
# Target: T1, HCV NS3 helicase (Hepatitis C virus genotype 1b, UniProt P26663)
# T1 construct: full-length NS3 (1-631), purified at Array BioPharma
# Experiment: HCV Helicase Prompt FRET Assay (Example A)
# Assay type: biochemical
# Details: HCV NS3 helicase; tables do not say whether Example A or Example B assay; read-out: IC50 Activity
# Procedure: Test compounds were diluted to 2.5 mM by adding 6 uL of a 10 mM solution of the compound to 18 uL of DMSO in a 384-well Costar polypropylene plate. Serial dilutions (2.5×) were performed in the plate using DMSO as the diluent. 1 ul of solution was transferred from each well to a new 384-well Costar polypropylene plate.
# A 2× mixture was prepared containing 100 nM helicase substrate, 500 nM helicase capture strand (CS), and 600 μM ATP by diluting stock solutions with assay buffer consisting of 25 mM MOPS, pH 7.0, and 1.5 mM MgCl2, 0.005% (v/v) Triton X-100. Stock helicase substrate was prepared by annealing a FAM-labeled oligonucleotide to a BHQ-1 labeled oligonucleotide, which were both custom synthesized and HPLC-purified at Biosearch Technologies. The FAM-labeled and BHQ-labeled oligonucleotide had the following sequences:
# The helicase capture strand was custom synthesized and purified at Integrated DNA Technologies. The helicase capture strand had the following sequence:
# The ATP solution was prepared in MilliQ water, pH adjusted to approximately 7 with NaOH. ATP powder was obtained from Sigma (A-7699). The concentration was determined via A260 (ext. coeff=15,400 M^−1cm^−1).
# 11.5 μL of assay buffer was added to all wells of the plate containing luL of test compound. 5 μL of the Compound/assay buffer mixture was added to a black polystyrene 384-well Proxiplate. A 4× Enzyme solution was prepared by diluting enzyme stock containing full-length NS3 (1-631), purified at Array BioPharma, with assay buffer. 5 μL of the 4× Enzyme solution was added to the Proxiplate and incubated for 5 minutes (for control wells lacking enzyme, assay buffer was used instead). 10 μL of 2× substrate/CS/ATP mixture was then added to all wells of Proxiplate. The final assay conditions included 50 nM Substrate, 250 nM Capture Strand, 300 μM ATP, 5 or 6 nM Enzyme, and 2% (v/v) DMSO. The reaction proceeded for 70 cycles (˜30 min.) on an Envision at room temperature. The plate was read using the Envision (top mirror=FITC; Excitation filter=FITC 485; Emission filter=FITC 535). The fluorescence intensity was recorded for a total of 30 minutes. The initial rates of the reactions was calculated and used to calculate IC50 values. The IC50 curve fitting was performed using either a 4-parameter or 5-parameter logistic equation.
# T1 sequence (P26663 1027-1657): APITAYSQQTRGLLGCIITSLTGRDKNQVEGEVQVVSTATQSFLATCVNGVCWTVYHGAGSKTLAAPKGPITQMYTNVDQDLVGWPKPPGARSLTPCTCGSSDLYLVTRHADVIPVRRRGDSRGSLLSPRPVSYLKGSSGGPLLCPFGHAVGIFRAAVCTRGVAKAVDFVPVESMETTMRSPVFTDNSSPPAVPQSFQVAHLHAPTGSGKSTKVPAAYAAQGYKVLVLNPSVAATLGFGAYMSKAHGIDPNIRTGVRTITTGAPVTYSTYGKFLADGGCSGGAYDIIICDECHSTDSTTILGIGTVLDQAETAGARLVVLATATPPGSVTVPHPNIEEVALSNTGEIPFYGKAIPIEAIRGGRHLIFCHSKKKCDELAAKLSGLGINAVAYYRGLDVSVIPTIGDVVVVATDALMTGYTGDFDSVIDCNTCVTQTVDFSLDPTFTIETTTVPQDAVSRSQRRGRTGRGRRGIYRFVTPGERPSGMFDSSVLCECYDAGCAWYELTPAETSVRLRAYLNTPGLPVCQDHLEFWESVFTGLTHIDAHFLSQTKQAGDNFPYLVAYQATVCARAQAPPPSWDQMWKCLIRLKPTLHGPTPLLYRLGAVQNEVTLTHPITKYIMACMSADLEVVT
row,IC50 [µM],SMILES
1,10 to 50,COC(=O)CC1CN(c2ccc([N+](=O)[O-])cc2C)c2ccc(Br)cc21 (centres unmarked) [Example 393]
2,> 50,COC(=O)C(NC(=O)c1c[nH]cn1)c1cn(Cc2ccc(C(C)C)cc2)c2ccccc12 (centres unmarked) [Example 421]
3,< 10,CN(c1cccc(F)c1)c1cccc(Cn2cc(CC(=O)O)c3ccccc32)c1 [Example 521]
4,10 to 50,CN(c1cccc(Cn2cc(CC(=O)O)c3ccccc32)c1)c1ccc(F)cc1F [Example 534]
5,< 10,O=C(O)Cc1cn(Cc2cccc(Oc3cccc(C(F)(F)F)c3)c2)c2ccccc12 [Example 482]
6,< 10,O=C(O)Cc1c(Cc2csc3ccc(Cl)cc23)n(Cc2ccccc2)c2cc(OCc3ccccc3)ccc12 [Example 366]
7,< 10,Nc1cc(N)cc(-c2ccc3c(CC(=O)O)cn(Cc4csc5ccc(Cl)cc45)c3c2)c1 [Example 373]
8,< 10,CN(c1ccc(Cl)cc1)c1cccc(Cn2cc(CC(=O)O)c3ccccc32)c1 [Example 525]
9,10 to 50,CC(C)c1ccc(Cn2cc(C(NC(=O)OC(C)(C)C)C(=O)O)c3ccccc32)cc1 (centres unmarked) [Example 419]
10,10 to 50,COc1ccc(Oc2cccc(Cn3cc(CC(=O)O)c4ccccc43)c2)cc1OC [Example 491]
11,< 10,O=C(O)Cc1cn(Cc2ccc(Oc3cccc(F)c3F)cc2)c2ccccc12 [Example 584]
12,10 to 50,O=C(O)C(Cc1c[nH]c2ccc(Br)cc12)c1c[nH]c2ccc(Br)cc12 (centres unmarked) [Example 411]
13,< 10,CN(c1cccc(Cn2cc(CC(=O)O)c3ccccc32)c1)c1ccccc1F [Example 520]
14,< 10,O=C(O)Cc1cn(Cc2cccc(Oc3ccc(Cl)cc3)c2)c2ccccc12 [Example 477]
15,> 50,CC(C)c1ccc(Cn2c(C(=O)N3CCNCC3)c(CC(=O)O)c3cc(Br)ccc32)cc1 [Example 430]

# Continued, compound first:
row,SMILES,IC50 [µM]
1,O=C(O)Cc1c(Cc2cccc(-c3cc(Cl)cc(Cl)c3)c2)oc2ccccc12 [Example 310],< 10
2,O=C(O)Cc1cn(Cc2csc3ccc(Cl)cc23)c2cc(OCc3ccccc3)ccc12 [Example 340],< 10
3,CC(=O)Nc1cccc(-c2ccc(Cc3[nH]c4ccccc4c3CC(=O)O)cc2)c1 [Example 293],10 to 50
4,O=C(O)Cc1c(C(=O)Cc2ccc(-c3ccccc3)cc2)[nH]c2ccccc12 [Example 249],10 to 50
5,O=C(O)Cc1c[nH]c2ncccc12 [Example 318],> 50
6,CCS(=O)(=O)NC(=O)Cc1cn(Cc2csc3ccc(Cl)cc23)c2ccccc12 [Example 197],10 to 50
7,COC(=O)/C=C/c1cnc2c(c1)c(/C=C/C(=O)OC)cn2-c1ccc([N+](=O)[O-])cc1C [Example 322],10 to 50
8,COc1ccc(-c2cccc(Cc3[nH]c4ccccc4c3CC(=O)O)c2)cc1 [Example 299],< 10
9,O=C(O)Cc1cn(Cc2csc(-c3ccccc3)n2)c2ccc(OCc3ccccc3)cc12 [Example 125],10 to 50
10,O=C(O)Cc1cn(Cc2csc3ccc(Cl)cc23)c2cc(Br)ccc12 [Example 359],10 to 50
11,O=C(O)Cc1c(C(=O)c2ccccc2)n(Cc2csc3ccc(Cl)cc23)c2ccccc12 [Example 217],< 10
12,O=C(O)Cc1cn(-c2ccc(-c3ccccc3Cl)cc2)c2ccccc12 [Example 153],< 10
13,O=C(O)Cc1c(Cc2csc3ccc(Cl)cc23)[nH]c2cc(OCc3ccccc3)ccc12 [Example 347],< 10
14,O=C(O)Cc1cn(-c2ccc(-c3cccc(Cl)c3)cc2)c2ccccc12 [Example 145],< 10
15,O=C(O)Cc1c(C(=O)c2ccc(-c3cccc(CO)c3)cc2)[nH]c2ccccc12 [Example 264],10 to 50
16,Cc1cc(NC(=O)c2cccs2)ccc1-n1cc(CC(=O)O)c2ccccc21 [Example 158],10 to 50

row,SMILES,IC50 [µM]
1,Cc1cc(-c2cccc(Cn3cc(CC(=O)O)c4cc(OCc5ccccc5)ccc43)c2)ccc1F [Example 118],< 10
2,O=[N+]([O-])c1ccc(-n2cc(CP(=O)(O)O)c3cc(Br)ccc32)nc1 [Example 317],< 10
3,CS(=O)(=O)c1ccc(-n2cc(CP(=O)(O)O)c3cc(Br)ccc32)cc1 [Example 314],10 to 50
4,CCc1cc2cc(-n3cc(CC(=O)O)c4ccccc43)ccc2s1 [Example 149],< 10
5,COc1cccc(-c2cccc(C(=O)c3[nH]c4ccccc4c3CC(=O)O)c2)c1 [Example 229],10 to 50
6,O=C(Cn1cc(Cc2nnn[nH]2)c2ccccc21)N1CCN(Cc2ccccc2)CC1 [Example 205],10 to 50
7,Cc1ccccc1CN(C)c1ccc(-n2cc(CC(=O)O)c3ccccc32)cc1 [Example 181],< 10
8,CCN(Cc1ccccc1)c1ccc(-n2cc(CC(=O)O)c3ccccc32)c(C)c1 [Example 174],< 10
9,NC(=O)c1ccc(-c2ccc(C(=O)c3[nH]c4ccccc4c3CC(=O)O)cc2)cc1 [Example 265],10 to 50
10,O=C(O)Cc1c(C(=O)c2ccc(-c3ccccc3)cc2)sc2ccccc12 [Example 224],< 10
11,CC(C)c1cccc(-c2cccc(Cc3oc4ccccc4c3CC(=O)O)c2)c1 [Example 311],< 10
12,CS(=O)(=O)NC(=O)Cc1cn(Cc2cccc(OCc3ccccc3)c2)c2ccc(OCc3ccccc3)cc12 [Example 192],< 10
13,COc1cccc(-c2ccc(-n3cc(CC(=O)O)c4ccccc43)cc2)c1 [Example 144],< 10
14,O=C(O)Cc1c(C(=O)c2cccc(-c3ccc(CO)cc3)c2)[nH]c2ccccc12 [Example 235],10 to 50
15,O=C(O)Cc1cn(Cc2csc3ccc(Cl)cc23)c2cc(-c3ccnc(NCCO)c3)ccc12 [Example 741],< 10

# Same assay, conditions: Table 21, compounds made using Scheme 28; read-out: IC50 Activity
row,IC50 [µM],SMILES
1,< 10,CN(c1ccc(Cn2cc(CC(=O)O)c3ccccc32)cc1)c1cc(C(F)(F)F)cc(C(F)(F)F)c1 [Example 582]
2,< 10,CN(c1ccc(Cn2cc(CC(=O)O)c3ccccc32)cc1)c1ccc(F)cc1F [Example 569]
3,< 10,COc1ccc(OC)c(N(C)c2ccc(Cn3cc(CC(=O)O)c4ccccc43)cc2)c1 [Example 578]
4,< 10,CN(c1ccc(Cn2cc(CC(=O)O)c3ccccc32)cc1)c1cccc(Cl)c1Cl [Example 572]

# Same assay, conditions: Table 23, compounds made using Scheme 30; read-out: IC50 Activity
row,IC50 [µM],SMILES
1,< 10,O=C(O)Cc1cn(Cc2ccc(Oc3ccc(C(F)(F)F)cc3C(F)(F)F)cc2)c2ccccc12 [Example 591]
2,< 10,O=C(O)Cc1cn(Cc2cccc(Oc3ccc(F)cc3F)c2)c2ccccc12 [Example 593]
3,< 10,O=C(O)Cc1cn(Cc2cccc(Oc3c(F)cccc3F)c2)c2ccccc12 [Example 594]

# Same assay, conditions: Table 26, compounds made using Scheme 33; read-out: IC50 Activity
row,IC50 [µM],SMILES
1,10 to 50,Nc1ccc(CO)c(-c2ccc3c(CC(=O)O)cn(Cc4csc5ccc(Cl)cc45)c3c2)n1 [Example 615]

# Same assay, conditions: Table 30, compounds made using Scheme 37; read-out: IC50 Activity
row,IC50 [µM],SMILES
1,10 to 50,CCOC(=O)Cc1cn(Cc2cccc(N(C)c3ccccc3Cl)c2)c2cc(-c3cccc(O)c3)ccc12 [Compound 624]

# Same assay, conditions: Table 31, compounds made using Schemes 38-45; read-out: IC50 Activity
row,IC50 [µM],SMILES
1,< 10,Cc1ccc(N)cc1-c1ccc2c(CC(=O)O)cn(Cc3csc4ccc(Cl)cc34)c2c1 [Example 627]

# Same assay, conditions: Table 34, compounds made using Schemes 51-52; read-out: IC50 Activity
row,IC50 [µM],SMILES
1,10 to 50,CC(=O)OC1CCCN(c2ccc3ccn(Cc4csc5ccc(Cl)cc45)c3c2)C1 (centres unmarked) [Example 695]

# Same assay, conditions: Table 36, compounds made using Scheme 54; read-out: IC50 Activity
row,IC50 [µM],SMILES
1,< 10,Cc1sc2cc(Cl)c(F)cc2c1Cn1cc(CC(=O)O)c2ccc(-c3cc(N)cc(N)c3)cc21 [Example 788]
2,> 50,O=C(O)Cc1cn(Cc2csc3cc(Cl)cc(Cl)c23)c2cc(Br)ccc12 [Example 786]
3,10 to 50,CCOC(=O)Cc1cn(Cc2c(-c3ccccc3)sc3ccccc23)c2cc(-c3cc([N+](=O)[O-])cc([N+](=O)[O-])c3)ccc12 [Example 711]

# Same assay, conditions: Table 37, compounds made using Scheme 55; read-out: IC50 Activity
row,IC50 [µM],SMILES
1,10 to 50,N#Cc1cccc(-c2ccc3c(CC(=O)O)cn(Cc4csc5ccc(Cl)cc45)c3c2)c1 [Example 756]
2,10 to 50,N#Cc1ccc(-c2ccc3c(CC(=O)O)cn(Cc4csc5ccc(Cl)cc45)c3c2)cc1 [Example 757]
3,> 50,NC(=O)Nc1ccccc1-c1ccc2c(CC(=O)O)cn(Cc3csc4ccc(Cl)cc34)c2c1 [Example 769]
4,> 50,O=C(O)Cc1cn(Cc2csc3ccc(Cl)cc23)c2cc(-c3cccc(Cl)c3)ccc12 [Example 754]

# Same assay, conditions: Table 38, compounds made using Scheme 56, Scheme 57 and Scheme 61; read-out: IC50 Activity
row,IC50 [µM],SMILES
1,< 10,CCNc1cc(Cl)cc2c(Cn3cc(CC(=O)O)c4ccc(-c5cc(N)cc(N)c5)cc43)csc12 [Example 731]
